Measured values: PubChem BioAssay AID330 (DTP/NCI, 2004)
“And” between values parts separate entries of the source, which are not always exact repeats. Equal values may be shown once. Toxic doses and inconclusive results are not listed. The calls were made as follows: active = survival T/C of 150% or more; inactive = T/C below 125% in these data.

System: P388 leukemia ip, CD2F1 mice, survival T/C
Test: NCI In Vivo Anticancer Drug Screen. Data for tumor model P388 Leukemia (intraperitoneal) in CD2F1 (CDF1) mice
Conditions: endpoint: median survival time, higher = longer survival
Method in brief: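 Mice carrying the transplanted tumor received test compound or vehicle. Survival was recorded in each group, and the value is the treated-group measurement divided by that of the vehicle-treated control group.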

[1] = dose: 50.0 mg/kg/injection, schedule: Q01DX005 (ip), vehicle: saline
[2] = dose: 100.0 mg/kg/injection, schedule: Q01DX005 (ip), vehicle: saline

Measured: T/C

CCN(CC)CCNc1ccc([N+](=O)[O-])cc1[N+](=O)[O-]
inactive: dose: 6.25 mg/kg/injection, schedule: Q01DX009 (ip), vehicle: Klucel (hydroxypropylcellulose) (HPC) 93 % of control | dose: 12.5 mg/kg/injection, schedule: Q01DX009 (ip), vehicle: Klucel (hydroxypropylcellulose) (HPC) 105 % of control | dose: 25.0 mg/kg/injection, schedule: Q01DX009 (ip), vehicle: Klucel (hydroxypropylcellulose) (HPC) 114 % of control | dose: 50.0 mg/kg/injection, schedule: Q01DX009 (ip), vehicle: Klucel (hydroxypropylcellulose) (HPC) 99 % of control

CCCCOP(=O)(CCCC)OCCCC.CCCCOP(=O)(CCCC)OCCCC.CCCCOP(=O)(CCCC)OCCCC.CCCCOP(=O)(CCCC)OCCCC.O.O.[Co+2].[O-][Cl+3]([O-])([O-])O
inactive: dose: 25.0 mg/kg/injection, schedule: Q01DX009 (ip), vehicle: saline with Tween-80 87 % of control | dose: 50.0 mg/kg/injection, schedule: Q01DX009 (ip), vehicle: saline with Tween-80 100 % of control and 104 % of control | dose: 100.0 mg/kg/injection, schedule: Q01DX009 (ip), vehicle: saline with Tween-80 116 % of control

CN(C)C1=NC(NCCc2ccccc2)(N(C)C)OC(N(C)C)=N1 (stereo not given)
inactive: dose: 25.0 mg/kg/injection, schedule: Q01DX005 (ip), vehicle: saline 100 % of control | [1] 107 % of control | [2] 100 % of control

CSCCC(C(=O)O)N(CCC#N)CCC#N (stereo not given)
inactive: [1] 98 % of control | [2] 102 % of control | dose: 200.0 mg/kg/injection, schedule: Q01DX005 (ip), vehicle: saline 100 % of control

CCN(CC)CCOC(=O)C(OCCCc1ccccc1)(c1ccccc1)c1ccccc1
inactive: dose: 50.0 mg/kg/injection, schedule: Q01DX005 (ip), vehicle: Klucel (hydroxypropylcellulose) (HPC) 111 % of control | dose: 100.0 mg/kg/injection, schedule: Q01DX005 (ip), vehicle: Klucel (hydroxypropylcellulose) (HPC) 112 % of control
